Results reported in patent US9062124B2, “GIP-based mixed agonists for treatment of metabolic disorders and obesity” (priority 2008, dated 2015).
Where a SMILES comes first, the peptide text is derived from it. Bridges are numbered along the chain shown (N, C = ends).

Tests used:
Assay type in all cases: cell-based
glucagon receptor = target: T1, glucagon receptor (Homo sapiens, UniProt P47871); test: cAMP synthesis functional assay (firefly luciferase reporter in HEK293 cells), glucagon receptor; details: for EC50: Glucagon Receptor EC50, cAMP luciferase reporter assay as in Example 16
T1 construct: expressed in transfected cells; host or cells: HEK293

GLP-1 receptor = target: T2, GLP-1 receptor (Homo sapiens, UniProt P43220); test: cAMP synthesis functional assay (firefly luciferase reporter in HEK293 cells), GLP-1 receptor
T2 construct: expressed in transfected cells; host or cells: HEK293

GIP receptor = target: T3, GIP receptor (Homo sapiens, UniProt P48546); test: cAMP synthesis functional assay (firefly luciferase reporter in HEK293 cells), GIP receptor; details: for EC50: GIP Receptor EC50, cAMP luciferase reporter assay as in Example 16
T3 construct: expressed in transfected cells; host or cells: HEK293
T3 sequence (P48546 22-466): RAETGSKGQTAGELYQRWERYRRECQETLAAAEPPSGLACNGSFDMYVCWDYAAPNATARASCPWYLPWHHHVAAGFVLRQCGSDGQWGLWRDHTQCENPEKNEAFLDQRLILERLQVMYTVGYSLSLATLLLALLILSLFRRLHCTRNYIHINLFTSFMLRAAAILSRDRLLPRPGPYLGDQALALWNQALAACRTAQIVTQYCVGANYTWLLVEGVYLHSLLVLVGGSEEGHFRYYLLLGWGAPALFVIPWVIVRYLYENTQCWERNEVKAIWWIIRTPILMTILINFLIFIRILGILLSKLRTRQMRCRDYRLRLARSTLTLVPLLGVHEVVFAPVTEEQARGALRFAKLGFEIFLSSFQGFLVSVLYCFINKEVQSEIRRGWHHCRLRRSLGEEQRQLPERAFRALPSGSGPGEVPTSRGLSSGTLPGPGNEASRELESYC

[1] = tested on: glucagon receptor, GLP-1 receptor or GIP receptor; test: Agonist profile across receptors assigned from the cAMP reporter assay data; details: assigned from the in vitro EC50 data of Tables 1-4
[2] = Table 1, relative to the native hormone of the indicated receptor
[3] = relative to the standard (Std.) EC50 of the same run
[4] = GLP-1 Receptor EC50, cAMP luciferase reporter assay as in Example 16

T2 sequence (P43220 24-463, species assumed): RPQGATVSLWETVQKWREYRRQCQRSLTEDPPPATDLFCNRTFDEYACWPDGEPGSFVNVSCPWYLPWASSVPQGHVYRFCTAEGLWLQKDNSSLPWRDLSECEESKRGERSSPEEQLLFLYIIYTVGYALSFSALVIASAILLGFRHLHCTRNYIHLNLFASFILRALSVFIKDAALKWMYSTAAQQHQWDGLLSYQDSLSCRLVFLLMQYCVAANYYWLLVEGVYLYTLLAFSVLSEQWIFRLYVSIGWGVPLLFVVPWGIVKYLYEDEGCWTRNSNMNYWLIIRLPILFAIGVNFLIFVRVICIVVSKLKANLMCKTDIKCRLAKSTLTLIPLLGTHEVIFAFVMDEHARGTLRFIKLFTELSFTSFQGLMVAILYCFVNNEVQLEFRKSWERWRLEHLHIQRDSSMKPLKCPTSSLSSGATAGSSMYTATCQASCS
T1 sequence (P47871 26-477): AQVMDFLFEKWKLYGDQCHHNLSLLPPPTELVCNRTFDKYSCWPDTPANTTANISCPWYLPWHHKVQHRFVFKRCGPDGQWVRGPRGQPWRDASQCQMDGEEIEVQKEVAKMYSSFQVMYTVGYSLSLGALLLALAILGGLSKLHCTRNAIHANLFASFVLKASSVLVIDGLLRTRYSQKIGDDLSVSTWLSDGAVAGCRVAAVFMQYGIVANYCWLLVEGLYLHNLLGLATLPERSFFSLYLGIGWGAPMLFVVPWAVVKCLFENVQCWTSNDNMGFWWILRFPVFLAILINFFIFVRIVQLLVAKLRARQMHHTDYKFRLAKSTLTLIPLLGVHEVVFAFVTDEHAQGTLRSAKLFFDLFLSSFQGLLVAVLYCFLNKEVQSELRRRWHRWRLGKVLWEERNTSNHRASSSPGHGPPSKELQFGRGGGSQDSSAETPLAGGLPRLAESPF

Row | Compound | Glucagon Receptor relative activity (glucagon receptor; [2]) [%] | GLP-1 Receptor relative activity (GLP-1 receptor; [2]) [%] | GIP Receptor relative activity (GIP receptor; [2]) [%] | receptor activity profile (glucagon / GLP-1 / GIP agonism) [1] | EC50 (glucagon receptor) [nM] | Glucagon Receptor relative activity (glucagon receptor; [3]) [%] | EC50 (GLP-1 receptor; [4]) [nM] | GLP-1 Receptor relative activity (GLP-1 receptor; [3]) [%] | EC50 (GIP receptor) [nM] | GIP Receptor relative activity (GIP receptor; [3]) [%] | EC50 (GLP-1 receptor; GLP-1 Receptor EC50, nM, Table 1) [nM]
1 | CC[C@H](C)[C@H](NC(=O)[C@H](CO)NC(=O)[C@H](Cc1ccc(O)cc1)NC(=O)[C@H](CC(=O)O)NC(=O)[C@H](CO)NC(=O)[C@@H](NC(=O)[C@H](Cc1ccccc1)NC(=O)[C@@H](NC(=O)CNC(=O)[C@H](CCC(N)=O)NC(=O)[C@H](CO)NC(=O)[C@@H](N)Cc1ccc(O)cc1)[C@@H](C)O)[C@@H](C)O)C(=O)N[C@@H](Cc1ccc(O)cc1)C(=O)N[C@@H](CC(C)C)C(=O)N[C@@H](CC(=O)O)C(=O)N[C@H]1CCC(=O)NCCCC[C@@H](C(=O)N[C@@H](CCC(=O)O)C(=O)N[C@@H](Cc2ccccc2)C(=O)N[C@H](C(=O)N[C@@H](CC(N)=O)C(=O)N[C@@H](Cc2c[nH]c3ccccc23)C(=O)N[C@@H](CC(C)C)C(=O)N[C@@H](CC(C)C)C(=O)N[C@@H](C)C(=O)NCC(=O)NCC(=O)N2CCC[C@H]2C(=O)N[C@@H](CO)C(=O)N[C@@H](CO)C(=O)NCC(=O)N[C@@H](C)C(=O)N2CCC[C@H]2C(=O)N2CCC[C@H]2C(=O)N2CCC[C@H]2C(=O)N[C@@H](CO)C(N)=O)C(C)C)NC(=O)[C@H](C)NC(=O)[C@H](C)NC(=O)[C@H](CCC(N)=O)NC1=O [mt-140] (H-YSQGTFTSDYSIYLDEQAAKEFVNWLLAGGPSSGAPPPS-NH2; lactam 16-20; N-terminus assumed) | 131.15 | 49.56 | 12.85 | exemplary GLP-1/GIP/glucagon triagonist peptides | – | – | – | – | – | – | –
2 | CCCCCCCCCCCCCCCC(=O)NCCCC[C@H](NC(=O)[C@H](CO)NC(=O)[C@@H]1CCCN1C(=O)[C@@H]1CCCN1C(=O)[C@@H]1CCCN1C(=O)[C@H](C)NC(=O)CNC(=O)[C@H](CO)NC(=O)[C@H](CO)NC(=O)[C@@H]1CCCN1C(=O)CNC(=O)CNC(=O)[C@H](C)NC(=O)[C@H](CC(C)C)NC(=O)[C@H](CC(C)C)NC(=O)[C@H](Cc1c[nH]c2ccccc12)NC(=O)[C@H](CS)NC(=O)[C@@H](NC(=O)[C@H](Cc1ccccc1)NC(=O)[C@H](CCC(=O)O)NC(=O)C(C)(C)NC(=O)[C@H](C)NC(=O)[C@H](C)NC(=O)[C@H](CCC(N)=O)NC(=O)[C@H](CCCCN)NC(=O)[C@H](CC(=O)O)NC(=O)[C@H](CC(C)C)NC(=O)[C@H](Cc1ccc(O)cc1)NC(=O)[C@@H](NC(=O)[C@H](CO)NC(=O)[C@H](Cc1ccc(O)cc1)NC(=O)[C@H](CC(=O)O)NC(=O)[C@H](CO)NC(=O)[C@@H](NC(=O)[C@H](Cc1ccccc1)NC(=O)[C@@H](NC(=O)CNC(=O)[C@H](CCC(N)=O)NC(=O)C(C)(C)NC(=O)[C@@H](N)Cc1ccc(O)cc1)[C@@H](C)O)[C@@H](C)O)[C@@H](C)CC)C(C)C)C(N)=O [mt-287] | – | – | – | exhibited activity at the GIP, GLP-1, and glucagon receptors | 0.0187 | 277.54 | 0.0124 | 94.35 | 0.0093 | 117.20 | –
3 | CC[C@H](C)[C@H](NC(=O)[C@H](Cc1ccccc1)NC(=O)[C@H](CCC(=O)O)NC(=O)[C@@H]1CCCCNC(=O)CC[C@H](NC(=O)[C@H](CC(=O)O)NC(=O)[C@H](CC(C)C)NC(=O)[C@H](Cc2ccc(O)cc2)NC(=O)[C@@H](NC(=O)[C@H](CO)NC(=O)[C@H](Cc2ccc(O)cc2)NC(=O)[C@H](CC(=O)O)NC(=O)[C@H](CO)NC(=O)[C@@H](NC(=O)[C@H](Cc2ccccc2)NC(=O)[C@@H](NC(=O)CNC(=O)[C@H](CCC(N)=O)NC(=O)[C@H](CO)NC(=O)[C@@H](N)Cc2ccc(O)cc2)[C@@H](C)O)[C@@H](C)O)[C@@H](C)CC)C(=O)N[C@@H](CCC(N)=O)C(=O)N[C@@H](C)C(=O)N[C@@H](C)C(=O)N1)C(=O)N[C@@H](C)C(=O)N[C@@H](Cc1c[nH]c2ccccc12)C(=O)N[C@@H](CC(C)C)C(=O)N[C@@H](CC(C)C)C(=O)N[C@@H](C)C(=O)NCC(=O)NCC(=O)N1CCC[C@H]1C(=O)N[C@@H](CO)C(=O)N[C@@H](CO)C(=O)NCC(=O)N[C@@H](C)C(=O)N1CCC[C@H]1C(=O)N1CCC[C@H]1C(=O)N1CCC[C@H]1C(=O)N[C@@H](CO)C(N)=O [mt-147] (H-YSQGTFTSDYSIYLDEQAAKEFIAWLLAGGPSSGAPPPS-NH2; lactam 16-20; N-terminus assumed) | 90.52 | 33.87 | 43.06 | exemplary GLP-1/GIP/glucagon triagonist peptides | – | – | – | – | – | – | –
4 | CC[C@H](C)[C@H](NC(=O)[C@H](Cc1ccccc1)NC(=O)[C@H](CCC(=O)O)NC(=O)[C@@H]1CCCCNC(=O)CC[C@H](NC(=O)[C@H](CC(=O)O)NC(=O)[C@H](CC(C)C)NC(=O)[C@H](Cc2ccc(O)cc2)NC(=O)[C@H](CCCCN)NC(=O)[C@H](CO)NC(=O)[C@H](Cc2ccc(O)cc2)NC(=O)[C@H](CC(=O)O)NC(=O)[C@H](CO)NC(=O)[C@@H](NC(=O)[C@H](Cc2ccccc2)NC(=O)[C@@H](NC(=O)CNC(=O)[C@H](CCC(N)=O)NC(=O)[C@H](CO)NC(=O)[C@@H](N)Cc2ccc(O)cc2)[C@@H](C)O)[C@@H](C)O)C(=O)N[C@@H](CCC(N)=O)C(=O)N[C@@H](C)C(=O)N[C@@H](C)C(=O)N1)C(=O)N[C@@H](C)C(=O)N[C@@H](Cc1c[nH]c2ccccc12)C(=O)N[C@@H](CC(C)C)C(=O)N[C@@H](CC(C)C)C(=O)N[C@@H](C)C(=O)NCC(=O)NCC(=O)N1CCC[C@H]1C(=O)N[C@@H](CO)C(=O)N[C@@H](CO)C(=O)NCC(=O)N[C@@H](C)C(=O)N1CCC[C@H]1C(=O)N1CCC[C@H]1C(=O)N1CCC[C@H]1C(=O)N[C@@H](CO)C(N)=O [mt-151] (H-YSQGTFTSDYSKYLDEQAAKEFIAWLLAGGPSSGAPPPS-NH2; lactam 16-20; N-terminus assumed) | 30.16 | 30.16 | 7.28 | exemplary GLP-1/GIP/glucagon triagonist peptides | – | – | – | – | – | – | –
5 | CC[C@H](C)[C@H](NC(=O)[C@H](CO)NC(=O)[C@H](Cc1ccc(O)cc1)NC(=O)[C@H](CC(=O)O)NC(=O)[C@H](CO)NC(=O)[C@@H](NC(=O)[C@H](Cc1ccccc1)NC(=O)[C@@H](NC(=O)CNC(=O)[C@H](CCC(=O)O)NC(=O)[C@H](C)NC(=O)[C@@H](N)Cc1ccc(O)cc1)[C@@H](C)O)[C@@H](C)O)C(=O)N[C@@H](Cc1ccc(O)cc1)C(=O)N[C@@H](CC(C)C)C(=O)N[C@@H](CC(=O)O)C(=O)N[C@H]1CCC(=O)NCCCC[C@@H](C(=O)N[C@@H](CCC(=O)O)C(=O)N[C@@H](Cc2ccccc2)C(=O)N[C@H](C(=O)N[C@@H](CC(N)=O)C(=O)N[C@@H](Cc2c[nH]c3ccccc23)C(=O)N[C@@H](CC(C)C)C(=O)N[C@@H](CC(C)C)C(=O)N[C@@H](C)C(=O)NCC(=O)NCC(=O)N2CCC[C@H]2C(=O)N[C@@H](CO)C(=O)N[C@@H](CO)C(=O)NCC(=O)N[C@@H](C)C(=O)N2CCC[C@H]2C(=O)N2CCC[C@H]2C(=O)N2CCC[C@H]2C(=O)N[C@@H](CO)C(N)=O)C(C)C)NC(=O)[C@H](C)NC(=O)[C@H](C)NC(=O)[C@H](CCC(N)=O)NC1=O [mt-149] (H-YAEGTFTSDYSIYLDEQAAKEFVNWLLAGGPSSGAPPPS-NH2; lactam 16-20; N-terminus assumed) | 0.64 | 97.53 | 91.18 | exemplary GLP-1/GIP co-agonist peptides | – | – | – | – | – | – | 0.036
6 | CCCCCCCCCCCCCCCC(=O)NCCCC[C@H](NC(=O)[C@@H](NC(=O)[C@H](Cc1ccccc1)NC(=O)[C@H](CCC(=O)O)NC(=O)C(C)(C)NC(=O)[C@H](C)NC(=O)[C@H](C)NC(=O)[C@H](CCC(N)=O)NC(=O)[C@H](CCCCN)NC(=O)[C@H](CC(=O)O)NC(=O)[C@H](CC(C)C)NC(=O)[C@H](Cc1ccc(O)cc1)NC(=O)[C@@H](NC(=O)[C@H](CO)NC(=O)[C@H](Cc1ccc(O)cc1)NC(=O)[C@H](CC(=O)O)NC(=O)[C@H](CO)NC(=O)[C@@H](NC(=O)[C@H](Cc1ccccc1)NC(=O)[C@@H](NC(=O)CNC(=O)[C@H](CCC(=O)O)NC(=O)C(C)(C)NC(=O)[C@@H](N)Cc1ccc(O)cc1)[C@@H](C)O)[C@@H](C)O)[C@@H](C)CC)C(C)C)C(=O)N[C@@H](Cc1c[nH]c2ccccc12)C(=O)N[C@@H](CC(C)C)C(=O)N[C@@H](CC(C)C)C(=O)N[C@@H](C)C(=O)NCC(=O)NCC(=O)N1CCC[C@H]1C(=O)N[C@@H](CO)C(=O)N[C@@H](CO)C(=O)NCC(=O)N[C@@H](C)C(=O)N1CCC[C@H]1C(=O)N1CCC[C@H]1C(=O)N1CCC[C@H]1C(=O)N[C@@H](CO)C(N)=O [mt-266] | – | – | – | exhibited activity at the GIP, GLP-1, and glucagon receptors | 18.6 | 0.23 | 1.53 | 1.15 | 0.164 | 5.19 | –
